Test results published in PubChem BioAssay (NCI).
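Exposure lasted 48 hours, with cells grown in 96-well plates and compounds tested at five concentrations. Definition used: TGI = concentration required for complete inhibition of growth.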

Legend:
Assay in all cases: inhibition of tumour cell growth, NCI panel, 48 h
SF-295 CNS = system: SF-295 CNS
NCI-H23 lung = system: NCI-H23 lung
OVCAR-4 ovarian = system: OVCAR-4 ovarian
NCI-H460 lung = system: NCI-H460 lung
U251 CNS = system: U251 CNS
T-47D breast = system: T-47D breast
HOP-92 NSCLC = system: HOP-92 NSCLC
SK-MEL-2 melanoma = system: SK-MEL-2 melanoma
UO-31 renal = system: UO-31 renal
A549 NSCLC = system: A549 NSCLC
UACC-257 melanoma = system: UACC-257 melanoma
PC-3 prostate = system: PC-3 prostate
HT29 colon = system: HT29 colon
M14 melanoma = system: M14 melanoma
HOP-62 NSCLC = system: HOP-62 NSCLC
786-0 renal = system: 786-0 renal
CCRF-CEM leukemia = system: CCRF-CEM leukemia
OVCAR-5 ovarian = system: OVCAR-5 ovarian
RPMI-8226 leukemia = system: RPMI-8226 leukemia
HCT-116 colon = system: HCT-116 colon
K-562 leukemia = system: K-562 leukemia
SNB-19 CNS = system: SNB-19 CNS
RXF 393 renal = system: RXF 393 renal
EKVX NSCLC = system: EKVX NSCLC
SF-539 CNS = system: SF-539 CNS
SN12C renal = system: SN12C renal
MDA-N = system: MDA-N
OVCAR-8 ovarian = system: OVCAR-8 ovarian
SNB-75 CNS = system: SNB-75 CNS
HS 578T breast = system: HS 578T breast
KM12 colon = system: KM12 colon
MCF7 breast = system: MCF7 breast
TK-10 renal = system: TK-10 renal
NCI-H522 lung = system: NCI-H522 lung
UACC-62 melanoma = system: UACC-62 melanoma
HL-60(TB) leukemia = system: HL-60(TB) leukemia
SK-MEL-28 melanoma = system: SK-MEL-28 melanoma
ACHN renal = system: ACHN renal
HCC-2998 colon = system: HCC-2998 colon
DU-145 prostate = system: DU-145 prostate
SK-OV-3 ovarian = system: SK-OV-3 ovarian
COLO 205 colon = system: COLO 205 colon
SW-620 colon = system: SW-620 colon
NCI/ADR-RES ovarian = system: NCI/ADR-RES ovarian
BT-549 breast = system: BT-549 breast
SF-268 CNS = system: SF-268 CNS
MALME-3M melanoma = system: MALME-3M melanoma
CAKI-1 renal = system: CAKI-1 renal
OVCAR-3 ovarian = system: OVCAR-3 ovarian
NCI-H226 lung = system: NCI-H226 lung
MOLT-4 leukemia = system: MOLT-4 leukemia
MDA-MB-435 = system: MDA-MB-435
SK-MEL-5 melanoma = system: SK-MEL-5 melanoma
A498 renal = system: A498 renal
HCT-15 colon = system: HCT-15 colon
IGROV1 ovarian = system: IGROV1 ovarian
MDA-MB-231 breast = system: MDA-MB-231 breast
LOX IMVI melanoma = system: LOX IMVI melanoma
SR leukemia = system: SR leukemia

C[C@]12CC[C@H](O)C[C@@H]1CC[C@@H]1[C@@H]2CC[C@]2(C)[C@@H](c3cc(C(F)(F)F)n[nH]3)CC[C@@H]12
TGI (SF-295 CNS): 16.9 µM
TGI (NCI-H23 lung): 24.7 µM
TGI (OVCAR-4 ovarian): 20.2 µM
TGI (NCI-H460 lung): 15.3 µM
TGI (U251 CNS): 24.1 µM
TGI (T-47D breast): 23.6 µM
TGI (HOP-92 NSCLC): 9.07 µM
TGI (SK-MEL-2 melanoma): 33.1 µM
TGI (UO-31 renal): 3.1 µM
TGI (A549 NSCLC): 23.1 µM
TGI (UACC-257 melanoma): 16.8 µM
TGI (PC-3 prostate): 20.7 µM
TGI (HT29 colon): 18.4 µM
TGI (M14 melanoma): 23.9 µM
TGI (HOP-62 NSCLC): 23 µM
TGI (786-0 renal): 17 µM
TGI (CCRF-CEM leukemia): 5.43 µM
TGI (OVCAR-5 ovarian): 23.5 µM
TGI (RPMI-8226 leukemia): 22.7 µM
TGI (HCT-116 colon): 14 µM
TGI (K-562 leukemia): 15.3 µM
TGI (SNB-19 CNS): 28.3 µM
TGI (RXF 393 renal): 16.5 µM
TGI (EKVX NSCLC): 28.2 µM
TGI (SF-539 CNS): 22.5 µM
TGI (SN12C renal): 21.7 µM
TGI (MDA-N): 25.4 µM
TGI (OVCAR-8 ovarian): 21 µM
TGI (SNB-75 CNS): 24.5 µM
TGI (HS 578T breast): > 58.9 µM
TGI (KM12 colon): 25.6 µM
TGI (MCF7 breast): 21.1 µM
TGI (TK-10 renal): 16 µM
TGI (NCI-H522 lung): > 43.8 µM
TGI (UACC-62 melanoma): 27.4 µM
TGI (HL-60(TB) leukemia): 2.89 µM
TGI (SK-MEL-28 melanoma): 26.9 µM
TGI (ACHN renal): 20 µM
TGI (HCC-2998 colon): 34.4 µM
TGI (DU-145 prostate): 22.9 µM
TGI (SK-OV-3 ovarian): 28.4 µM
TGI (COLO 205 colon): 16.2 µM
TGI (SW-620 colon): 37.3 µM
TGI (NCI/ADR-RES ovarian): 23.3 µM
TGI (BT-549 breast): 23 µM
TGI (SF-268 CNS): > 53.6 µM
TGI (MALME-3M melanoma): > 53.3 µM
TGI (CAKI-1 renal): 26.9 µM
TGI (OVCAR-3 ovarian): 24.8 µM
TGI (NCI-H226 lung): 36.7 µM
TGI (MOLT-4 leukemia): 19.7 µM
TGI (MDA-MB-435): 22.9 µM
TGI (SK-MEL-5 melanoma): 19.6 µM
TGI (A498 renal): 21.1 µM
TGI (HCT-15 colon): 24.3 µM
TGI (IGROV1 ovarian): 19.8 µM
TGI (MDA-MB-231 breast): 18.9 µM
TGI (LOX IMVI melanoma): 21.7 µM
TGI (SR leukemia): 15.3 µM
